Results as given in publication PMC12307812 (Nature Communications, 2025).
Read-outs that look alike come from different tables or passages of the source.

Tests used:
[1] = target: T1, Recombinant Human TMPRSS2 (Homo sapiens, UniProt O15393); assay: TMPRSS2 biochemical assay (Boc-Gln-Ala-Arg-AMC fluorogenic substrate)
T1 construct: human TMPRSS2 residues 106492, N-terminal 6x His-tag; 6x His-tag (N); purchased Cusabio CSB-YP023924HU; host or cells: yeast
Method: Inhibitors of TMPRSS2 were tested using a high throughput activity assay. […] TMPRSS2 (5 µl, 0.018 mg/ml) in assay buffer (50 mM Tris pH 8, 150 mM NaCl, 0.01% Tween20) was dispensed to that, using a BioRAPTR (Beckman Coulter), for a total assay volume of 5 µl.
After incubation at room temperature for 1 h, fluorescence was measured. […] Raw plate reads for each titration point were normalized relative to a positive control containing no enzyme (0% activity, full inhibition) and a negative control containing DMSO-only wells (100% activity, basal activity). Data normalization was performed using GraphPad Prism (GraphPad Software, San Diego, CA).
We employed the curve fitting algorithm available in the SciPy package (version 1.10.1)[61] to derive the Hill slope and the IC50 value, along with their corresponding error estimates.

[2] = test system: vesicular stomatitis virus (VSV); assay type: cell-based; conditions: VSV
[3] = test system: pseudovirus bearing S protein of SARS-CoV-2 lineage B.1; assay: organism not typed; assay type: cell-based
[4] = test system: pseudovirus bearing S protein of SARS-CoV-2 lineage B.1.617.2; assay: organism not typed; assay type: cell-based
[5] = test system: pseudovirus bearing S protein of SARS-CoV-2 lineage EG.5.1; assay: organism not typed; assay type: cell-based; conditions: for IC50: Calu-3 cells
[6] = test system: pseudovirus bearing S protein of SARS-CoV-2 lineage BA.2.86; assay: organism not typed; assay type: cell-based
[7] = test system: pseudovirus bearing S protein of HCoV-NL63; assay: organism not typed; assay type: cell-based
[8] = test system: pseudovirus bearing S protein of MERS-CoV; assay: organism not typed; assay type: cell-based
[9] = test system: pseudovirus bearing VSV-G; assay: organism not typed; assay type: cell-based; conditions: Calu-3
[10] = Calu-3, read-out: mean inhibition

T1 sequence (O15393 106-492 limits assumed): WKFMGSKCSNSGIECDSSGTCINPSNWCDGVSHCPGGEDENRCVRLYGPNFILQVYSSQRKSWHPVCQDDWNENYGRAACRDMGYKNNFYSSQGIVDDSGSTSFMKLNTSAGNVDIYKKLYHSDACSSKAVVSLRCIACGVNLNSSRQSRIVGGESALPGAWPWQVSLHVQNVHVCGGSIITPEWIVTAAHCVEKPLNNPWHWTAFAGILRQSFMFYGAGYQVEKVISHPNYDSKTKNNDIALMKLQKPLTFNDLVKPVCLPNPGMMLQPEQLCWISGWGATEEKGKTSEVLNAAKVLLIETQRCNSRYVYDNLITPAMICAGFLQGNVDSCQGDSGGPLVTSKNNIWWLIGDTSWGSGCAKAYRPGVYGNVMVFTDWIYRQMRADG

CN(C)C(=O)COC(=O)Cc1ccc(OC(=O)c2ccc(NC(=N)N)cc2)cc1 [camostat]
inhibition at 0.000677404 µM ([1]; concentration 0.677404 nM): 13.8% | inhibition at 0.00203221 µM ([1]; concentration 2.03221 nM): 36.1% | inhibition at 0.00609663 µM ([1]; concentration 6.09663 nM): 68.3% | inhibition at 0.0182899 µM ([1]; concentration 18.2899 nM): 90.6% | inhibition at 0.0548697 µM ([1]; concentration 54.8697 nM): 102% | inhibition at 0.164609 µM ([1]; concentration 164.609 nM): 103% | inhibition at 0.493827 µM ([1]; concentration 493.827 nM): 105% | inhibition at 1.48148 µM ([1]; concentration 1481.48 nM): 105% | inhibition at 4.44444 µM ([1]; concentration 4444.44 nM): 104% | inhibition at 13.3333 µM ([1]; concentration 13333.3 nM): 104% | inhibition at 40 µM ([1]; concentration 40000 nM): 104% | mean log10(PFU/ml) ([2]; concentration 5 nM): 9.003 log10(PFU/ml) | mean log10(PFU/ml) ([2]; concentration 50 nM): 8.994 log10(PFU/ml) | mean log10(PFU/ml) ([2]; concentration 500 nM): 9.01 log10(PFU/ml) | mean log10(PFU/ml) ([2]; concentration 5000 nM): 9.013 log10(PFU/ml) | mean log10(PFU/ml) ([2]; concentration 50000 nM): 8.989 log10(PFU/ml) | inhibition at 0.00025 µM ([3]; Calu-3, B.1, concentration 0.25 nM): -1.94% | inhibition at 0.0025 µM ([3]; Calu-3, B.1, concentration 2.5 nM): 3.06% | inhibition at 0.025 µM ([3]; Calu-3, B.1, concentration 25 nM): 2.53% | inhibition at 0.25 µM ([3]; Calu-3, B.1, concentration 250 nM): 60.8% | inhibition at 2.5 µM ([3]; Calu-3, B.1, concentration 2500 nM): 89.4% | inhibition at 25 µM ([3]; Calu-3, B.1, concentration 25000 nM): 96.6% | IC50 ([3]; Calu-3 cells, read-out: IC50, pseudovirus cell entry B.1): 0.19 µM | inhibition at 0.00025 µM ([4]; Calu-3, B.1.617.2, concentration 0.25 nM): -0.882% | inhibition at 0.0025 µM ([4]; Calu-3, B.1.617.2, concentration 2.5 nM): 3.07% | inhibition at 0.025 µM ([4]; Calu-3, B.1.617.2, concentration 25 nM): 10.5% | inhibition at 0.25 µM ([4]; Calu-3, B.1.617.2, concentration 250 nM): 57.9% | inhibition at 2.5 µM ([4]; Calu-3, B.1.617.2, concentration 2500 nM): 90.4% | inhibition at 25 µM ([4]; Calu-3, B.1.617.2, concentration 25000 nM): 96.4% | IC50 ([4]; Calu-3 cells, read-out: IC50, pseudovirus cell entry B.1.617.2): 0.191 µM | inhibition at 0.00025 µM ([5]; Calu-3, EG.5.1, concentration 0.25 nM): 3.95% | inhibition at 0.0025 µM ([5]; Calu-3, EG.5.1, concentration 2.5 nM): -5.66% | inhibition at 0.025 µM ([5]; Calu-3, EG.5.1, concentration 25 nM): 19.1% | inhibition at 0.25 µM ([5]; Calu-3, EG.5.1, concentration 250 nM): 34.3% | inhibition at 2.5 µM ([5]; Calu-3, EG.5.1, concentration 2500 nM): 43.1% | inhibition at 25 µM ([5]; Calu-3, EG.5.1, concentration 25000 nM): 52.7% | IC50 ([5]; Fig. 4g, read-out: IC50 estimate, pseudovirus cell entry EG.5.1): 8.56 ± 6.54 µM | IC50 ([5]; read-out: IC50, EG.5.1-S protein-driven Calu-3 cell entry): 8.56 µM | inhibition at 0.00025 µM ([6]; Calu-3, BA.2.86, concentration 0.25 nM): 2.77% | inhibition at 0.0025 µM ([6]; Calu-3, BA.2.86, concentration 2.5 nM): 3.7% | inhibition at 0.025 µM ([6]; Calu-3, BA.2.86, concentration 25 nM): 24% | inhibition at 0.25 µM ([6]; Calu-3, BA.2.86, concentration 250 nM): 61.2% | inhibition at 2.5 µM ([6]; Calu-3, BA.2.86, concentration 2500 nM): 85.5% | inhibition at 25 µM ([6]; Calu-3, BA.2.86, concentration 25000 nM): 85.8% | IC50 ([6]; Calu-3 cells, read-out: IC50, pseudovirus cell entry BA.2.86): 0.148 µM | IC50 ([7]; Calu-3, read-out: IC50 estimate, pseudovirus cell entry NL63-S): 0.806 ± 0.263 µM | inhibition at 0.00025 µM [7, 10]: -3.23% | inhibition at 0.0025 µM [7, 10]: 5.92% | inhibition at 0.025 µM [7, 10]: 15.4% | inhibition at 0.25 µM [7, 10]: 41.9% | inhibition at 2.5 µM [7, 10]: 66.4% | inhibition at 25 µM [7, 10]: 73.2% | IC50 ([8]; Calu-3, read-out: IC50 estimate, pseudovirus cell entry MERS-S): 0.189 ± 0.0123 µM | inhibition at 0.00025 µM ([8]; Calu-3, concentration 0.25 nM): 0.136% | inhibition at 0.0025 µM ([8]; Calu-3, concentration 2.5 nM): 2.04% | inhibition at 0.025 µM ([8]; Calu-3, concentration 25 nM): 13.3% | inhibition at 0.25 µM ([8]; Calu-3, concentration 250 nM): 57.4% | inhibition at 2.5 µM ([8]; Calu-3, concentration 2500 nM): 89.2% | inhibition at 25 µM ([8]; Calu-3, concentration 25000 nM): 95.7% | inhibition at 0.00025 µM ([9]; concentration 0.25 nM): 0.261% | inhibition at 0.0025 µM ([9]; concentration 2.5 nM): -1.2% | inhibition at 0.025 µM ([9]; concentration 25 nM): -0.393% | inhibition at 0.25 µM ([9]; concentration 250 nM): -0.191% | inhibition at 2.5 µM ([9]; concentration 2500 nM): -0.407% | inhibition at 25 µM ([9]; concentration 25000 nM): -1.53%
